The values below come from US20240398737A1, “FUNCTIONALIZED LONG-CHAIN HYDROCARBON MONO- AND DI-CARBOXYLIC ACIDS AND DERIVATIVES THEREOF, AND THEIR USE FOR THE PREVENTION OR TREATMENT OF DISEASE” (Espervita Therapeutics, Inc., priority 2021, published 2024).

Several values for one entry are separate records, joined by “and”; a condition that tells them apart may be missing. Equal values may be shown once.

Experiment [1] concerns hepatic de novo lipogenesis. Kind of experiment: Hepatic de novo lipogenesis (14C-glucose) in a murine model of NASH. The experiment is classed as in vivo, mouse. Particulars: for Hepatic de novo lipogenesis, Mean (DPM/gram liver tissue/hour): high fat/high fructose fed mice. The protocol:
Experimental Protocol. FIG. 22 summarizes the study protocol. Mice were dosed daily for 7 days with a single dose of either Compound I-32 or Compound I-1 at a dose of 10 mg/kg, 30 mg/kg or 60 mg/kg. On the 8th day of the experiment mice receive final dose of Compound I-32 or Compound I-1, followed one hour later by an I.P. bolus of 14—C Glucose.
C57BL6J (8 weeks of age) were obtained for the Jackson Laboratory and fed a normal chow diet upon arrival. At ˜10 weeks of age, mice were given a diet containing high fat and high fructose (Rodent Diet with 40 kcal % Fat (Mostly Palm Oil), 20 kcal % fructose, and 0.02% cholesterol, obtained from Research Diets, Product Code: D19101102) and housed at thermoneutral conditions (26-29° C.). After 7-8 months the mice were divided into 7 groups and received a single daily dose via gavage of either vehicle (1.5% CMC and 0.2% Tween-20) or vehicle containing Compound I-32 or Compound I-1 at a concentration of 10 mg/kg, 30 mg/kg, or 60 mg/kg for 7 days. On the morning of day 8, animals received a final dose and after 1 hour ^14C-glucose (PerkinElmer) was administered at a concentration of 12 μCi per mouse in a volume of 0.1 ml in 0.9% saline I.P. One hour after ^14C-glucose was given, animals were anesthetized by I.P. injection of Ketamine/Xylazine (150 mg/12.4 mg/kg, respectively). Blood was drawn through cardiac puncture; the liver was removed, and a sample was from the left lobe and frozen in liquid nitrogen. Liver tissue was chipped on dry-ice and the weight of the chip weight recorded (30-50 mg of tissue). Liver tissue was homogenized in 1 ml of 2:1 chloroform: methanol using a bead homogenizer at 5000 rpm for 2×12 seconds. Samples were incubated with gentle shaking at 4° C. for 2 hours, vortexed for 2×12 seconds, and then centrifuge at 7000 rpm for 10 minutes at 4° C. The supernatant was transferred to a 1.5 ml Eppendorf and 200 μl of 0.9% saline was added. Samples were vortexed for 2×12 seconds and centrifuged at 3000 rpm for 10 minutes at 4° C. 200 μl of the lower organic phase was removed and added to 5 ml of scintillation fluid. The amount radioactivity in the sample was measured by scintillation counting. The number of disintegrations per minute (DPM) were determined over a 5-minute period and normalized to the amount of liver tissue. 5-10 μl of plasma obtained at termination was also counted and lipid/gram tissue counts were normalized to plasma counts. Statistical comparisons were carried out using a one-way ANOVA followed by Dunnett's post hoc test using GraphPad Prism 8 software. A p-value of less than or equal to 0.05 was used as the criterion of significance.

Experiment [2] relates to Mouse primary hepatocytes. Briefly: 14C-acetate incorporation into total lipids in mouse primary hepatocytes. The experiment is classed as cell-based. To be noted: incorporation of 14C-acetate in primary mouse hepatocyte total lipids, 4 hours, 100 μM. The protocol:
After perfusion, collagen digested liver cells were re-suspended in William's E media (11 mM glucose) (Gibco) supplemented with 10% fetal bovine serum (FBS) (Gibco), 2 mM L-glutamine (Gibco) and 1% Antibiotic-Antimycotic (Gibco) mixture and seeded in white opaque 96-well plates. On the following day, the cells were serum-starved for 2 hours, then treated with 0 μM, 0.1 μM, 0.3 μM, 0.5 μM, 1 μM, 3 μM, 10 μM, and 100 μM of Compound I-32, Compound I-1, Compound III-1 or Reference Compound (e.g., any of Compounds A-E or bempedoic acid) in the presence of ^14C-Acetate (1 μCi/ml, PerkinElmer). Each of Compound I-32, Compound I-1, Compound III-1, and Reference Compound was solubilized in 100% DMSO to a final concentration of 100 mM stock solution. In the experimental condition, the stock solution was diluted in serum free media (William's E media (11 mM glucose) (Gibco), 2 mM L-glutamine (Gibco) and 1% Antibiotic-Antimycotic) to yield the desired concentration of each compound. […] After 4 hours of treatment, the plates were washed two times with PBS (×1) and 100 μL microscint fluid (Microscint 0, part #601361) was added in each well. Plates were wrapped with aluminum foil and were shaken at 250 rpm for 2 h. After 2 h of shaking, ^14C incorporation into lipid was determined by liquid scintillation counting using a TopCount NXT Microplate Scintillation and Luminescence Counter (Perkin Elmer).
The effects of Compound I-32, Compound I-1, and Compound III-1 on mouse primary hepatocyte lipogenesis are represented in Table 13. Each Compound was assayed at a concentration of 0 μM (vehicle control), 0.1 μM, 0.3 μM, 0.5 μM, 1 μM, 3 μM, 10 μM, and 100 μM, unless otherwise noted. Statistically significant inhibition was determined by one-way ANOVA and Dennett's post hoc test where appropriate. […] IC50 values were determined by nonlinear regression. All statistical analyses were carried out using GraphPad Prism 8 software. A p-value of less than or equal 0.05 was considered significant.

Experiment [3] deals with DDR2 (Homo sapiens (Human), UniProt Q16832). Kind of experiment: Wild type kinase screen: DDR2. Type of experiment: biochemical. To be noted: compound at 10 μM, 10 μM ATP, Data 1 and Data 2 duplicates.
The target of experiment [4] is LIMK1 (Homo sapiens (Human), UniProt P53667). Briefly: Wild type kinase screen: LIMK1. Type of experiment: biochemical. Particulars: compound at 10 μM, 10 μM ATP, Data 1 and Data 2 duplicates.
In experiment [5] the target is Aurora A (Homo sapiens (Human), UniProt O14965). Kind of experiment: Wild type kinase screen: Aurora A. The experiment is classed as biochemical. Particulars: compound at 10 μM, 10 μM ATP, Data 1 and Data 2 duplicates.
The mark [6] stands for this setting: 10 mg/kg daily oral gavage for 7 days.
[7] abbreviates: 30 mg/kg daily oral gavage for 7 days.
[8] abbreviates: 60 mg/kg daily oral gavage for 7 days.

LIMK1, sequence (P53667 whole entry, species assumed): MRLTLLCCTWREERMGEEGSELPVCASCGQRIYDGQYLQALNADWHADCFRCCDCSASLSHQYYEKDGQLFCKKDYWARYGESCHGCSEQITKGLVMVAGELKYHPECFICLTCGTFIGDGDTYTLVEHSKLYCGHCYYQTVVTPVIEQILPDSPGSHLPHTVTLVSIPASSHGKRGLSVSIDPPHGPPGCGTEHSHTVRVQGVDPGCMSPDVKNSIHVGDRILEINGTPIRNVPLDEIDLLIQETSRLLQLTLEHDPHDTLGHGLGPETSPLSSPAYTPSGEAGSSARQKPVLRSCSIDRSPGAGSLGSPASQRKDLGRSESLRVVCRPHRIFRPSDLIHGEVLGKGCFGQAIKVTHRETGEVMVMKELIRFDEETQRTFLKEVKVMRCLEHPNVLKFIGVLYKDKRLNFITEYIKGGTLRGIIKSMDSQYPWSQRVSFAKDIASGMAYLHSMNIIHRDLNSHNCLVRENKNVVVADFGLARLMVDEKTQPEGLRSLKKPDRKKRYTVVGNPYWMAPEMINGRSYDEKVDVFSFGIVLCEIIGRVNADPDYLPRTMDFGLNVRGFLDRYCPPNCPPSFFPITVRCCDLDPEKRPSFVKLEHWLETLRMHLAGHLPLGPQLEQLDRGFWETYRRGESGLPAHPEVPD
DDR2, sequence (Q16832 22-855, species assumed): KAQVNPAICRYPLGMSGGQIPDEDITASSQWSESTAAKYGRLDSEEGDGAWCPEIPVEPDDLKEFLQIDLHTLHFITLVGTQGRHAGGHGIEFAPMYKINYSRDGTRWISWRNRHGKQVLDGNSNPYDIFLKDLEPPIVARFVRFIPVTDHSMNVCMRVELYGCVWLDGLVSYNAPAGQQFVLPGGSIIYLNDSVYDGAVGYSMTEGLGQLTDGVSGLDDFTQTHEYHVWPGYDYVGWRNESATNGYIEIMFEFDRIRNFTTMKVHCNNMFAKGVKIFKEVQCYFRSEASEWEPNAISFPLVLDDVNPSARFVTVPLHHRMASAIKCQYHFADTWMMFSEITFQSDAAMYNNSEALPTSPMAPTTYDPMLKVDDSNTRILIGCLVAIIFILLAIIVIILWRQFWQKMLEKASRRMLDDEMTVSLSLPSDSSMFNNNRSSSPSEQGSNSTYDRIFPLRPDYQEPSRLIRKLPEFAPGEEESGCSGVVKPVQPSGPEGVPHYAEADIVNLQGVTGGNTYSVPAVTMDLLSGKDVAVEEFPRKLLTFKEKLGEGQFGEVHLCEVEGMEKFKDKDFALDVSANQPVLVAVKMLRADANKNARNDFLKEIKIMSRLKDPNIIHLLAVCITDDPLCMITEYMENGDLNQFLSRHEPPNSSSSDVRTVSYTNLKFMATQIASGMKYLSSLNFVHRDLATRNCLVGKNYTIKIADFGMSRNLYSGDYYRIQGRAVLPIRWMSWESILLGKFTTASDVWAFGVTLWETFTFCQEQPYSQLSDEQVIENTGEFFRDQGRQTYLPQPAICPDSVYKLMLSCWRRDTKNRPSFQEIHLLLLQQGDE
Aurora A, sequence (O14965 whole entry): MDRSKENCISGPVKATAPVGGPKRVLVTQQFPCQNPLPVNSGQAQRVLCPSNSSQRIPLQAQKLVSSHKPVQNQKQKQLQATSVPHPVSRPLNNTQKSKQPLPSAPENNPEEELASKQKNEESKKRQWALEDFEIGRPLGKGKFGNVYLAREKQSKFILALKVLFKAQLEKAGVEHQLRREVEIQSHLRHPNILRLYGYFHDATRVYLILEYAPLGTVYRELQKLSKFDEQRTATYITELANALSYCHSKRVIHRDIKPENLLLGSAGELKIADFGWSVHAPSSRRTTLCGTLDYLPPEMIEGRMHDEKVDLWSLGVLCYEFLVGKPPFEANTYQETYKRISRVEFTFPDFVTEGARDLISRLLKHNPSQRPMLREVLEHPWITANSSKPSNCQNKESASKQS

As for `CC(C)(CCCCc1ccc(CCCCC(C)(C)C(=O)O)cc1)C(=O)O` [Compound I-1, 6-[4-(5-carboxy-5-methylhexyl)-phenyl]-2,2-dimethylhexanoic acid], the “Hepatic de novo lipogenesis, Mean (DPM/gram liver tissue/hour)” value in experiment [1] (setting [6]) was 81.25 DPM/gram liver tissue/hour; in experiment [1] (setting [7]), 43.83 DPM/gram liver tissue/hour; in experiment [1] (setting [8]), 30.68 DPM/gram liver tissue/hour. For the same molecule, the “Hepatic de novo lipogenesis, % change from vehicle control (inhibition)” value in experiment [1] (setting [7]) was 56% and 55.65%; in experiment [1] (setting [8]), 69% and 68.96%. Further, in experiment [2], the “% change from control at 100 μM ± SEM(n)” value is on record as −84 ± 1.0 (n = 6) %. For the same molecule, the “% Enzyme Activity (relative to DMSO controls)” value in experiment [3] is listed as 69.84%; in experiment [4], 71.9%; in experiment [5] it was 83.92%.

In the case of `CC(C)(CCCCc1cccc(CCCCC(C)(C)C(=O)O)c1)C(=O)O` [Compound I-32, 6-[3-(5-carboxy-5-methylhexyl)-phenyl]-2,2-dimethylhexanoic acid], the “Hepatic de novo lipogenesis, % change from vehicle control (inhibition)” value in experiment [1] (setting [6]) was 48.79%; in experiment [1] (setting [7]) it was 37.42%; in experiment [1] (setting [8]), 53% and 52.90%. Moreover, the “Hepatic de novo lipogenesis, Mean (DPM/gram liver tissue/hour)” value in experiment [1] (setting [6]) is 50.61 DPM/gram liver tissue/hour; in experiment [1] (setting [7]) it was 61.85 DPM/gram liver tissue/hour; in experiment [1] (setting [8]), 46.55 DPM/gram liver tissue/hour. The “% change from control at 100 μM ± SEM(n)” value in experiment [2] is given as −82 ± 2.8 (n = 6) %. The “% Enzyme Activity (relative to DMSO controls)” value was 85.83% in experiment [3], 71.71% in experiment [4] and 93.33% in experiment [5].
